Experimental data taken from patent publication US20100292179A1, “TARGET” (The University of Durham, priority 2006, published 2010).
Starred links: 1 amine or outer side, 2 acyl side, 3 side chain; linkers in the order of their positions; H or OH if unused. Non-standard residues stand in square brackets, D forms with d. Residues, ends and D or L forms follow the SMILES beside them. X1 = CC[C@@H](C)[C@@H](O[*:1])C(=O)[*:2]; NMeVal(β-OH) = CN[C@H](C(=O)O)C(C)(C)O; NMeF = CN[C@@H](Cc1ccccc1)C(=O)O; aIle = CC[C@@H](C)[C@H](N)C(=O)O; NMeV = CN[C@H](C(=O)O)C(C)C

Legend:
[1] = tested on: samples from fungal Aspergillus spp.; conditions: lack of susceptibility attributed to efflux; cited from earlier work
[2] = tested on: YPH499-HIS-GAL-AUR1 complemented with LmIPCS; assay: Agar diffusion assay, yeast mutant rescued with LmIPCS; type: cell-based, S. cerevisiae
Protocol: (§1) A. Volumes of 1, 2 and 3 μl of 25 μM Aureobasidin A (AbA), 1 mM myriocin (MYR), 25 μM cycloheximide (CYC) and DMSO as a control (CTL) spotted onto yeast plates prepared as described in Experimental Procedures. B. Volumes of 1, 2 and 3 μl of 100 μM Aureobasidin A spotted onto yeast plates prepared as described in Experimental Procedures.
(§2) YPH499—wild type yeast; ScIPCS—YPH499-HIS-GAL-AUR1 pRS426 ScIPCS; LmIPCS—YPH499-HIS-GAL-AUR1 pRS426 LmIPCS; AGD—yeast sphingolipid bypass mutant, negative control.
(§3) Agar diffusion assay—Wild type YPH499 yeast and the transgenic strain YPH499-HIS-GAL-AUR1 complemented with ScIPCS or LmIPCS were assayed for susceptibility to Aureobasidin A (Takara), myriocin (Sigma) and cycloheximide (Sigma) as previously described (19). Briefly, 2.4×10^7 logarithmically dividing cells were embedded in 15 ml of YPD agararose (2% dextrose, 1% yeast extract, 2% peptone, 0.8% agarose) on […] square Petri dishes (Sarstedt). Inhibitors were applied in DMSO at the concentrations described below and the dishes incubated at 30° C.
(§4) In this study, the diffusion assay system previously described, with the sphingolipid bypass mutant (AGD) as a negative control, was utilized (6,19).

[3] = tested on: AGD yeast sphingolipid bypass mutant; assay: Agar diffusion assay, sphingolipid bypass mutant (negative control); type: cell-based, S. cerevisiae; conditions: 100 μM Aureobasidin A
Protocol: as §1, §2, §3, §4

[4] = tested on: parasites without an active sphingolipid biosynthetic pathway; assay: Effect on Leishmania parasites without an active sphingolipid biosynthetic pathway; type: cell-based; conditions: 20 μM; data not shown
IPC synthase = target: T1, IPC synthase (Saccharomyces cerevisiae, UniProt P36107); conditions: with respect to ceramide; cited from earlier work
T1 sequence (P36107 1-401): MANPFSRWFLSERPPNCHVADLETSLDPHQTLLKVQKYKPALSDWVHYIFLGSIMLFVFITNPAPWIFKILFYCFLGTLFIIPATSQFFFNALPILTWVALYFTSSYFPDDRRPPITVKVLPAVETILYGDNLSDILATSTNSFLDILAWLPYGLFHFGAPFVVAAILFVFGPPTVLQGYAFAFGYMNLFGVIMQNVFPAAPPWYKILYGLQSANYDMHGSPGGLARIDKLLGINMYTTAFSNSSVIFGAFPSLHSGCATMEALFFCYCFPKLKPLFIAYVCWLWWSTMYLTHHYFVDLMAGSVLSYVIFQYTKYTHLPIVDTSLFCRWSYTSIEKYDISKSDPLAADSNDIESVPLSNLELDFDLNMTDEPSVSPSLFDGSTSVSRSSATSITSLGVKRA
T1 sequence (Q06346 1-221 partner): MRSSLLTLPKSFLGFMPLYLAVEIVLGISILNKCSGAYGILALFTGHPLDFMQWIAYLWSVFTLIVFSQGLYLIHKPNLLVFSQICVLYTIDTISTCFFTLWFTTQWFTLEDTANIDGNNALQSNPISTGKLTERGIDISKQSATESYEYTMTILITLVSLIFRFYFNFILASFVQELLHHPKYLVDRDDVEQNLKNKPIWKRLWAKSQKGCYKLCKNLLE

[5] = tested on: YPH499-HIS-GAL-AUR1 complemented with ScIPCS; assay: Agar diffusion assay, yeast mutant rescued with ScIPCS; type: cell-based, S. cerevisiae; conditions: FIG. 5A; 25 μM Aureobasidin A, 1 mM myriocin, 25 μM cycloheximide spotted
Protocol: as §1, §2, §3, §4

T. cruzi enzyme (TcIPCS) = conditions: even at levels 1000 fold higher than that which inhibit the S. cerevisiae enzyme; crude parasite membrane extracts; cited from earlier work
insect stage Leishmania = assay: Effect on insect stage Leishmania in culture; type: cell-based; conditions: 20 μM; data not shown
Wild type YPH499 yeast = assay: Agar diffusion assay, wild type yeast; type: cell-based, S. cerevisiae; conditions: FIG. 5A; 25 μM Aureobasidin A, 1 mM myriocin, 25 μM cycloheximide spotted
Protocol: as §1, §2, §3, §4

[6] = FIG. 5A, 1, 2 and 3 μl of 25 μM Aureobasidin A, 1 mM myriocin, 25 μM cycloheximide spotted, 30° C.

CC[C@@H](C)[C@@H]1NC(=O)[C@@H]2CCCN2C(=O)[C@H](Cc2ccccc2)N(C)C(=O)[C@H](Cc2ccccc2)NC(=O)[C@H](C(C)C)N(C)C(=O)[C@@H]([C@H](C)CC)OC(=O)[C@H](C(C)(C)O)N(C)C(=O)[C@H](CC(C)C)NC(=O)[C@H](C(C)C)N(C)C1=O [Aureobasidin A] (cyclo(F[NMeF]P[aIle][NMeV]L[NMeVal(β-OH)][X1][NMeV]))
susceptibility of Aspergillus spp. samples [1]: only susceptible to Aureobasidin A in the presence of mammalian multi-drug resistance modulators
susceptibility in agar diffusion assay [2, 6]: resistant
susceptibility in agar diffusion assay ([2]; FIG. 5B, 100 μM Aureobasidin A, 1, 2 and 3 μl spotted): sensitivity of LmIPCS to the drug was evident
inhibitory effect on growth [3]: lack of an inhibitory effect
activity against parasites in which LmIPCS is redundant, relative to insect stage Leishmania [4]: equivalent activity
mode of inhibition (IPC synthase): non-competitive inhibitor
susceptibility in agar diffusion assay [5]: sensitive
T. cruzi enzyme activity (T. cruzi enzyme (TcIPCS)): unaffected
effect against insect stage Leishmania in culture (insect stage Leishmania): exhibited an effect
specificity of the inhibitor in Leishmania culture (insect stage Leishmania): non-specific
susceptibility in agar diffusion assay (Wild type YPH499 yeast): sensitive

C=C1/C=C(\C)[C@H](CC)CC(=O)[C@H](C)C(=O)[C@@](O)(CO)C/C(OC)=C/[C@@H](C)C1 [rustmicin]
T. cruzi enzyme activity (T. cruzi enzyme (TcIPCS)): unaffected

CCCCCCC(=O)CCCCCC/C=C/C[C@@H](O)[C@H](O)[C@@](N)(CO)C(=O)O [myriocin]
sensitivity compared with wild-type or mutant rescued with ScIPCS ([2]; FIG. 5A, 1 mM myriocin): increased sensitivity
susceptibility in agar diffusion assay [2, 6]: sensitive
susceptibility in agar diffusion assay [5]: sensitive
susceptibility in agar diffusion assay (Wild type YPH499 yeast): sensitive

C[C@@H]1C[C@@H]([C@H](O)CC2CC(=O)NC(=O)C2)C(=O)[C@@H](C)C1 [cycloheximide]
susceptibility in agar diffusion assay [2, 6]: sensitive
susceptibility in agar diffusion assay [5]: sensitive
susceptibility in agar diffusion assay (Wild type YPH499 yeast): sensitive
